Source: patent US20220251611A1, “BENZALDEHYDE PRODUCTION METHOD” (AJINOMOTO CO., INC., priority 2019, published 2022)
Read-outs that look alike come from different tables or passages of the source.

Assays:
[1] = system: HmaS At-His purified enzyme (HMAS); settings: for Generated amount of mandelate: 10 mM sodium phenylpyruvate, 25° C., 15 minutes, no hydrogen peroxide taken as 100%
Experimental: Cells were collected from 10 mL of the HmaS At culture broth obtained in Example 2 by centrifugation, suspended in 2 mL of xTractor Buffer (Takara Bio), and allowed to stand at room temperature for 20 minutes, to disrupt the cells. The cell residue was removed from the disruptant by centrifugation, and the obtained supernatant was used as a soluble fraction. The soluble fraction was applied to a His-tag protein purification column HisTALON Superflow Cartridges (Takara Bio, CV=1 mL) equilibrated with a buffer containing 20 mM Tris-HCl (pH 8.0), 300 mM NaCl, and 10 mM Imidazole, to adsorb proteins on the carrier. Proteins not adsorbed on the carrier (non-adsorbed proteins) were washed off with a buffer containing 20 mM Tris-HCl (pH 8.0), 300 mM NaCl, and 10 mM Imidazole, and then a buffer containing 20 mM Tris-HCl (pH 8.0), 300 mM NaCl, and 150 mM Imidazole was flowed at 1.5 mL/min, to elute the adsorbed proteins. The eluted fractions were collected and concentrated using Amicon Ultra-15 30 k (Millipore). The concentrate was diluted with 20 mM of Tris-HCl (pH 7.6), and hereinafter used as a HmaS At-His purified enzyme.
A reaction mixture (0.2 mL) containing 10 mM of sodium phenylpyruvate, 0.01 mM of iron sulfate, 10 mM of trisodium citrate, 10 mM of sodium ascorbate, 100 mM of Tris-HCl (pH 7.0), 0.02 mg/mL of the HmaS At-His purified enzyme, and 0 to 1 mM of hydrogen peroxide was put into a 1.5 mL-volume tube, and a reaction was carried out at 25° C. Similarly, a reaction without addition of HmaS At-His was carried out. After 15 minutes, a 0.05 mL aliquot of the reaction mixture was mixed with 0.2 mL of a reaction stop solution (1% phosphoric acid), and subjected to HPLC analysis. HPLC analysis was carried out in the same manner as Example 5, and mandelate enzymatically-generated was quantified. The amount of hydrogen peroxide added and the generated amount of mandelate are shown in Table 3, wherein the generated amount of mandelate in the case of not adding hydrogen peroxide was taken as 100%.

[2] = system: benzaldehyde generation from L-Phe by AAD, HmaS At, Md1B and Md1C concentrates; test: Synthesis of benzaldehyde from L-Phe with addition of culture broth of catalase-expressing strain; assay type: biochemical, E. coli; settings: 50 mM L-Phe, 0.1 mL of 5-fold Cat concentrate in 1 mL reaction mixture, 25° C., 20 hours, then Md1C concentrate 4 hours; HPLC; Ctrl 9.1
Experimental: A 10 mL aliquot of the AAD culture broth obtained in Example 1 was centrifuged, 8 mL of the supernatant was removed, and the cells were suspended in the remaining culture supernatant, to obtain a 5-fold concentrated culture broth. This was used for the following reactions as an AAD concentrate. Similarly, 5-fold concentrates were prepared from the HmaS At culture broths, Md1B culture broth, and Md1C culture broth obtained in Examples 2 to 4, and used for the following reactions as a HmaS At concentrates, Md1B concentrate, and Md1C concentrate. A 1 mL aliquot of the Cat 1 culture broth obtained in Example 6 was centrifuged, 0.8 mL of the supernatant was removed, and the cells were suspended in the remaining culture supernatant, to obtain a 5-fold concentrated culture broth. This was used for the following reactions as a Cat 1 concentrate. Similarly, 5-fold concentrates were prepared from the Cat 2 to 15 culture broths and the Ctrl culture broth, and used for the following reactions as Cat 2 to 15 concentrates and a Ctrl concentrate.
After 20 hours, the reaction mixture was centrifuged, a 0.49 mL aliquot of the supernatant was mixed with 0.01 mL of the Md1C concentrate, and the resultant mixture was put into a test tube and shaken at 25° C. […]

Molecule	Generated amount of mandelate ([1]; 0.001 mM hydrogen peroxide added) [%]	Generated amount of mandelate ([1]; 0.01 mM hydrogen peroxide added) [%]	Generated amount of mandelate ([1]; 0.1 mM hydrogen peroxide added) [%]	Generated amount of mandelate ([1]; 1 mM hydrogen peroxide added) [%]	Effect on HMAS activity ([1]; 0.01 to 1 mM of hydrogen peroxide added)	Benzaldehyde [2] [mM]
OO [Hydrogen peroxide, hydrogen peroxide]	103	94	39	1	inhibits HMAS activity	–
Cat 2: Cat HPII derived from E. coli (SEQ ID NO: 6), concentrated culture broth of expressing strain	–	–	–	–	–	10.7
